Measured values from patent US8021686B2, “Lipid-encapsulated polyanionic nucleic acid” (The University of British Columbia, priority 1997, dated 2011).

Key:
[1] = Assessment of antisense encapsulation (encapsulation efficiency, drug:lipid ratio); type: physicochemical
Procedure: drug to lipid ratio: The amount of drug (therapeutic agent) in a defined volume of preparation divided by the amount of lipid in the same volume. This may be on a mole per mole basis or on a weight per weight basis, or on a weight per mole basis. For final, administration-ready formulations, the drug:lipid ratio is calculated after dialysis, chromatography and/or enzyme (e.g., nuclease) digestion has been employed to remove as much of the external therapeutic agent (e.g., nucleic acid) as possible.
encapsulation efficiency: the drug to lipid ratio of the starting mixture divided by the drug to lipid ratio of the final, administration competent formulation. This is a measure of relative efficiency. For a measure of absolute efficiency, the total amount of therapeutic agent (nucleic acid) added to the starting mixture that ends up in the administration competent formulation, can also be calculated. The amount of lipid lost during the formulation process may also be calculated. […]
Antisense encapsulation was typically assessed by dual label ([^3H]-antisense and [^14C]-lipid) liquid scintillation counting after gel filtration chromatography to separate the free and encapsulated antisense. Antisense encapsulation was evaluated by summing the total [^3H]-antisense radioactivity associated with the lipid peak and dividing by the total [^3H]-antisense radioactivity. […]

[2] = tested on: MDA-MB-453 human breast carcinoma; experiment: Tumor window model, human breast tumor; type: in vivo, mouse; details: i.v. 10 mg/kg/administration, 3 administrations/week
Excerpt: The human breast carcinoma line MDA-MB-453 was implanted in a mouse tumor window model according to the method of Wu, N. Z., Da, D., Rudoll, T. L., Needham, D., Whorton, R. & Dewhirst, M. W. 1993. Increased microvascular permeability contributes to preferential accumulation of Stealth liposomes in tumor tissue. Cancer Research 53: 3765-3770; and Dewhirst, M. W., Tso, C. Y., Oliver, R., Gustafson, C. S., Secomb, T. W. & Gross, J. F. 1989. Morpholigic and hemodynamic comparison of tumor and healing normal tissue microvasculature. Int. J. Radiat. Oncol. Biol. Phys. 17: 91-99. See also Dewhirst, M W., and Needham, D. 1995. Extravasation of Stealth Liposomes into Tumors: Direct Measurement of Accumulation and Vascular Permeability using a Skin Flap Window Chamber. In Stealth Liposomes (Eds. Lasic, D. and Martin, F.) CRC Press.
In vivo efficacy evaluation: When the tumor in the window has reached a diameter of 2-3 mm, treatment with free or TCS-encapsulated US3 oligonucleotide is initiated. Treatment consists of a 200 ul intravenous administration (tail vein) of either free US3 or TCS-encapsulated US3 on a 3 administrations/week schedule and an antisense dose of 10 mg/kg/administration. Tumor size is monitored 3 times per week by microscopy.

[3] = tested on: ICAM-1 gene; experiment: Ear inflammation model (DNFB contact sensitivity); type: in vivo, ICR mice; details: lipid-encapsulated antisense, i.v. 20-30 mg/kg 15 min after DNFB, 24 hours
Procedure: Mice were sensitized by applying 25 μL of 0.5% 2,4-dinitro-1-fluorobenzene (DNFB) in acetone: olive oil (4:1) to the shaved abdominal wall for two consecutive days. Four days after the second application, mice were challenged on the dorsal surface of the left ear with 10 μL of 0.2% DNFB in acetone:olive oil (4:1). Mice received no treatment on the contralateral (right) ear. In some cases, control mice received 10 μL of vehicle on the dorsal surface of the left ear.
Ear thickness was measured immediately prior to ear challenge, and at various time intervals after DNFB challenge, using an engineer's micrometer (Mitutoyo, Tokyo, Japan). Increases in ear thickness measurements were determined by subtracting the pre-challenge from post-challenge measurements.
Inflamed mice were treated at the time of ear challenge with a 30 mg/kg i.v. dose of either HBS (no oligo), EPC:CHOL liposomes with entrapped PS-3082 (identified as AS 1000), POPC:CHOL:DODAP:PEG-CerC14 with entrapped PS-3082 (identified as AS 4100), or DSPC:CHOL:DODAP:PEG-CerC14 with entrapped PS-3082 (identified as AS 4200). Ear swelling was measured at 24 hours after initiating inflammation using an engineer's micrometer.
Antisense Sample Preparation: Antisense was encapsulated using the standard methods of Examples 5-9, using the phosphodiester modification. […]

[4] = pKa of amino lipid; type: physicochemical

VEGF-R1: human VEGF-R 1 ribozyme GAGUUGCUGAUGAGGCCGAAAGGCCGAAAGUCUG (SEQ ID No 16) (GAGUUGCUGAUGAGGCCGAAAGGCCGAAAGUCUG; chemistry not fully specified)
encapsulation efficiency ([1]; 20 mM citrate, FIG. 20): over 50%

PO-2302: human ICAM-1 phosphodiester antisense GCCCAAGCTGGCATCCGTCA (SEQ ID No 2) (DNA, all phosphodiester, methylation of C not given here)
final (administration ready) drug:lipid ratios ([1]; citrate varied, DSPC:CHOL:DODAP:PEG-CerC14 25:45:20:10): greater than 10 % by weight

US3: anti-human erb-B-2 antisense GGT GCT CAC TGC GGC (SEQ ID No 3) (antisense GGTGCTCACTGCGGC; all phosphorothioate, sugars by position and methylation of C not given here)
effect on tumor growth [2]: ineffective at inhibiting tumor growth

PS-3082: murine ICAM-1 phosphorothioate antisense TGCATCCCCCAGGCCACCAT (SEQ ID No 1) (DNA, all phosphorothioate, methylation of C not given here)
reduction of the degree of inflammation [3]: around 70%

CCCCCCCC/C=C\CCCCCCCC(=O)OCC(CN(C)C)OC(=O)CCCCCCC/C=C\CCCCCCCC (stereo not drawn) [DODAP, 1,2-dioleoyloxy-3-dimethylaminopropane]
pKa [4]: 6.53

PO-3082: murine ICAM-1 phosphodiester antisense TGCATCCCCCAGGCCACCAT (SEQ ID No 1) (DNA, all phosphodiester, methylation of C not given here)
reduction of the degree of inflammation [3]: ~85%
